Measurements from article PMC5360176 (Journal of clinical psychopharmacology, 2016).
Values joined by “and” are separate entries in the source; they are usually repeats but may differ in a detail not shown here. Identical values can stand only once. Like-named read-outs stand apart in the source and are kept apart here.

Legend:
[1] = human, in vivo
[2] = clinical; conditions: human, in vivo
[3] = human, in vivo; remark: listed apart in the source
[4] = system: CAI; conditions: low affinity RBC isoform; cited from earlier work
[5] = cited from earlier work
[6] = clinical; conditions: human, in vivo; remark: listed apart in the source
[7] = clinical; conditions: human, in vivo; remark: listed apart in the source
[8] = system: CAII; conditions: high affinity RBC isoform; cited from earlier work
[9] = human, in vivo; remark: listed apart in the source
[10] = oxycodone 30 mg p.o.
[11] = therapeutic dose of ~400 mg ACZ/day
[12] = noroxycodone in plasma after oxycodone + ACZ, Day 5
[13] = noroxycodone in plasma after oxycodone alone, Day 1
[14] = noroxycodone in plasma after oxycodone alone, Day 8

## CC(=O)Nc1nnc(S(N)(=O)=O)s1 [ACZ, Acetazolamide]
[1]
  Urinary excretion rate Cmax: 669 µg/h
[1]; 48 h
  Slowest individual urinary elimination rate (low outlier): 87 µg/h
[1]; 96 h
  Fastest individual urinary elimination rate (high outlier): 33 µg/h
[2]; Blood Cmax
  Cmax: 776 ng/mL
[2]; Blood Tmax
  Tmax: 4.8 h
[2]; RBCs (minus residuum) Cmax
  Cmax: 636 ng/mL
[2]; RBCs (minus residuum) Tmax
  Tmax: 7.5 h
[2]; RBCs (total) Cmax
  Cmax: 1790 ng/mL
[2]; RBCtotal Cmax
  Cmax: 17 ± 1 µM
[3]
  Cmax: 1285 ng/mL
  Plasma Area under Curve: 5568 ng/mlblood*h
  Time of plasma maximum concentration (Cmax) after administration: ≤ 1 h
  Tmax: 0.5 h
[4]
  Max binding capacity: 155 µM
[5]; therapeutic (~400 mg / day) doses
  RBC concentration with which side effects correlate: exceed 90 µM
[5]; [11]
  Mean RBC concentration: 121 ± 46 µM
  Mean plasma concentration: 51 ± 40 µM
[6]; Cmax
  Cmax: 1310 ng/mL
[6]; Plasma Cmax
  Cmax: 660 ng/mL
[6]; Plasma Tmax
  Tmax: 1 h
[6]; Tmax
  Tmax: 1 h
[7]
  Tmax: 7.2 h
[8]
  Maximum ACZ binding capacity: 17 µM
[9]
  Blood Area under Curve: 52130 ng/ml*h
  RBCs (minus residuum) Area under Curve: 49555 ng/mlblood*h
  RBCs (total) Area under Curve: 133107 ng/mlblood*h

## COc1ccc2c3c1O[C@H]1C(=O)CC[C@@]4(O)[C@@H](C2)NCC[C@]314 [Noroxycodone]
[12]
  Area under Curve: 218 ng·h/mL
  Cmax: 30 ng/mL
  Tmax: 0.9 h
  half-life: 5.0 h
[13]
  Cmax: 34.9 ng/mL
  Tmax: 0.9 h
  half-life: 4.3 h
[14]
  Area under Curve: 213 ng·h/mL
  Cmax: 30.2 ng/mL
  Tmax: 0.9 h
  half-life: 4.7 h
Noroxycodone metabolite in plasma after oxycodone alone, Day 1, one-compartment
  Area under Curve: 224 ng·h/mL
Presence or absence of ACZ
  Effect of ACZ on noroxycodone PK parameters: no differences in any of the PK parameters

## COc1ccc2c3c1O[C@H]1C(=O)CC[C@@]4(O)[C@@H](C2)N(C)CC[C@]314 [Oxycodone]
[10]
  Opioid Agonist Checklist scores as rated by subjects and observers: increased scores on an Opioid Agonist Checklist
  Pupil diameter: sustained pupil miosis
  Ratings on a visual analog scale of drug liking: increased ratings on a visual analog scale of drug liking
human, in vivo, 30 mg
  Tmax: 1 h
human, in vivo, 30 mg, Cmax, oxycodone alone, Day 1, plasma
  Cmax: 61.6 ng/mL
human, in vivo, 30 mg, Cmax, oxycodone alone, Day 8, plasma
  Cmax: 68.5 ng/mL
human, in vivo, 30 mg, α-Half-life, oxycodone alone, Day 8, plasma
  half-life: 0.14 ± 0.06 h
human, in vivo, 30 mg, β-Half-life, oxycodone alone, Day 1, plasma
  half-life: 3.9 h
human, in vivo, 30 mg, β-Half-life, oxycodone alone, Day 8, plasma
  half-life: 4.1 h
human, in vivo, Cmax, oxycodone + ACZ, Day 5, plasma
  Cmax: 71.4 ng/mL
human, in vivo, α-Half-life, oxycodone + ACZ 15 mg, Day 5, plasma
  half-life: 0.2 h
human, in vivo, β-Half-life, oxycodone + ACZ, Day 5, plasma
  half-life: 4.1 h
Oxycodone + ACZ, Day 5, plasma
  Area under Curve: 341.3 ng·h/mL
Oxycodone alone, Day 1, plasma
  Area under Curve: 281.1 ^♦ h*ng/ml
Oxycodone alone, Day 8, plasma
  Area under Curve: 318.6 ng·h/mL
  Tmax: 1.0 h
  α-Half-life: 0.1 ^♦ h
p<0.05, not different from Day 8
  Difference in oxycodone AUC (exposure), Day 5 with ACZ vs Day 1 alone: 20% and 20 ± 11%
